Data as given in patent publication US5922879A, “N-aminoalkyl-2-anthraquinonecarboxamides: new dopamine receptor subtype specific ligands” (Neurogen Corporation, priority 1997, dated 1999).
Counter-ions that a name gives are not always drawn.

Legend:
D2 receptors = experiment: D2 receptor binding (displacement of 0.5 nM 3H-YM 09151-2); parameters: species or system African Green monkey; details: pellets of COS cells with recombinant D2, nonspecific binding with 1 mM spiperone
Protocol: (§1) Assay for D2 and D3 Receptor Binding Activity
(§2) Pellets of COS cells containing recombinantly produced D2 or D3 receptors from African Green monkey were used for the assays. The sample is homogenized in 100 volumes (w/vol) of 0.05 M Tris HCl buffer at 4° C. and pH 7.4. The sample is then centrifuged at 30,000 ×g and resuspended and rehomogenized. The sample is then centrifuged as described and the final tissue sample is frozen until use. The tissue is resuspended 1:20 (wt/vol) in 0.05 M Tris HCl buffer containing 100 mM NaCl.
The binding characteristics of representative compounds of the invention for D2 and D3 receptor subtypes are shown in Table 2 for rat striatal homogenates.

D3 receptors = biological target: T1, D3 receptors (Chlorocebus aethiops, UniProt P52703); experiment: D3 receptor binding (displacement of 0.5 nM 3H-YM 09151-2); parameters: species or system African Green monkey; details: pellets of COS cells with recombinant D3, nonspecific binding with 1 mM spiperone
T1 construct: expressed in transfected cells; host or cells: COS cells
Protocol: as §1, §2
Incubations are carried out at 48° C. and contain 0.4 ml of tissue sample, 0.5 nM ^3 H-YM 09151-2 and the compound of interest in a total incubation of 1.0 ml. Nonspecific binding is defined as that binding found in the presence of […] spiperone; without further additions, nonspecific binding is less than 20% of total binding. The binding characteristics of representative compounds of the invention for D2 and D3 receptor subtypes are shown in Table 2 for rat striatal homogenates.

T1 sequence (P52703 whole entry): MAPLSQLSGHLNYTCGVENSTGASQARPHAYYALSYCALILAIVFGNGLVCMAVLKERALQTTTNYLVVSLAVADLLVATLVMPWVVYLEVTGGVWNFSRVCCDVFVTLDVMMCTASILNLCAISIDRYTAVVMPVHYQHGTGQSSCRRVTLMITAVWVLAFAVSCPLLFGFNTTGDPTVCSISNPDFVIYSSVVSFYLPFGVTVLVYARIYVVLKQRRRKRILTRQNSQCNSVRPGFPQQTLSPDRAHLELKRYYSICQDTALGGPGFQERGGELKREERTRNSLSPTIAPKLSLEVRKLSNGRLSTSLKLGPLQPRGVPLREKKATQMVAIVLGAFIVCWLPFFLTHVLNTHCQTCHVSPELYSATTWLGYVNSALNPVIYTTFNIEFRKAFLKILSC

Ki (D2 receptors) [nM]	Ki (D3 receptors) [nM]	Compound
154	4	O=C(NCCCCN1CCN(c2cccc(Cl)c2Cl)CC1)c1ccc2c(c1)C(=O)c1ccccc1C2=O [Compound 1, N-(1-{4-[4-(2,3-Dichlorophenyl)piperazin-1-yl]}butyl)-2anthraquinonecarboxamide hydrochloride]
61	2	Cc1c(Cl)cccc1N1CCN(CCCCNC(=O)c2ccc3c(c2)C(=O)c2ccccc2C3=O)CC1 [Compound 4, N-(1-{4-[4-(2-Methyl-3-chlorophenyl)piperazin-1-yl]}butyl)-2-anthraquinonecarboxamide hydrochloride]

Compound	Ki (D2 receptors) [nM]	Ki (D3 receptors) [nM]
N-(1-{4-[4(8-Quinolinyl)piperazin-1-yl]}butyl)-2-anthraquinonecarboxamide hydrochloride [Compound 6]	45	
